# Assay results taken from patent US20080287406A1, “Compositions and methods for treating medical conditions” (priority 2007, published 2008).
# Where two headings read alike, the source gives them in different places.
# Key:
# [1] = tested on: active rheumatoid arthritis; conditions: 3 mg Prednisolone + Placebo, N = 69, ITT (LOCF)
# Text: A visual analog scale (VAS) provides a measure of a one-dimensional quantity. A VAS generally utilizes a representation of distance, such as a picture of a line with hash marks drawn at regular distance intervals, e.g., ten 1-cm intervals. […] This procedure provides a simple and rapid approach to obtaining quantitative information about how the patient is experiencing pain. VAS scales can also be used, e.g., to measure fatigue. VAS scales and their use are described, e.g., in U.S. Pat. Nos. 6,709,406 and 6,432,937.
# We conducted a 14 week blinded, randomized study including a split dose corticosteroid therapy or placebo, with regular CRP and inflammatory cytokine measurements. The study population had active rheumatoid arthritis. The subject must otherwise have been in good general health.
# (§1) Screening Visit • Day 1 (Baseline Visit)—Start of Run-In Period • Day 14 (±2 days)—End of Run-In Period/Start of Treatment Period • Day 42 (±2 days) • Day 70 (±2 days)—End of Treatment Period/Start of Withdrawal Period • Day 98 (±2 days)—End of Study
# All eligible subjects received DMARD therapy in a stable dose. Subjects were evaluated for study eligibility at the Screening visit, which was conducted within 14 days before the first dose of study drug. The subject provided written informed consent to participate in the study before any Screening laboratory samples were collected or evaluations performed.
# All subjects were given 3 mg prednisolone alone for 2 weeks (Run-In Period). Subjects were then randomized into treatment groups to additionally receive 10 mg paroxetine, 20 mg paroxetine or placebo tablets for 8 weeks (Combination Treatment Period). The powered study ended after these first 10 weeks. All subjects continued in an un-powered part of the study for an additional 4 weeks (Withdrawal Period). In this portion of the study, half of the subjects on 10 mg or 20 mg paroxetine plus 3 mg prednisolone stopped taking paroxetine, and instead took 3 mg prednisolone plus placebo, while the other half stopped taking prednisolone, and instead took either dose of paroxetine plus placebo. Similarly, half of the subjects on prednisolone plus placebo stopped the prednisolone, and instead took two placebo tablets, while the other half continued the regimen of 3 mg prednisolone plus placebo. A schematic of the study design is shown below.
# CRP = CRP measurements in 14 week blinded, randomized study; assay type: in vivo, human; conditions: 3 mg Prednisolone + Placebo, N = 69, ITT (LOCF)
# Method: CRP is an acute phase response protein whose production is stimulated by cytokines, particularly interleukin-6 (IL-6). The relationship between inflammatory processes and elevation in plasma CRP and pro-inflammatory cytokines is well known. Typically a serum CRP level of >3 mg/L is considered elevated. Serum CRP levels can be measured by standard techniques known in the art, e.g., ELISA assays (Kamiya Biomedical Co., Seattle, Wash.).
# We conducted a 14 week blinded, randomized study including a split dose corticosteroid therapy or placebo, with regular CRP and inflammatory cytokine measurements. The study population had active rheumatoid arthritis.
# as §1
# The powered study ended after these first 10 weeks. […] A schematic of the study design is shown below.
compound,measurement,setting,value
"C[C@]12C=CC(=O)C=C1CC[C@@H]1[C@@H]2[C@@H](O)C[C@@]2(C)[C@H]1CC[C@]2(O)C(=O)CO [Prednisolone, prednisolone]","Patient Pain Assessment (VAS) Score % Change from baseline, Mean",[1]; Day 14,−13.65%
same,"Patient Pain Assessment (VAS) Score Change from baseline, Mean",[1]; Day 14,−7.73
same,"Patient Pain Assessment (VAS) Score Value, Mean",[1]; Day 14,45.58
same,"Patient Pain Assessment (VAS) Score % Change from baseline, Mean",[1]; Day 42,−19.23%
same,"Patient Pain Assessment (VAS) Score Change from baseline, Mean",[1]; Day 42,−10.57
same,"Patient Pain Assessment (VAS) Score Value, Mean",[1]; Day 42,42.74
same,"Patient Pain Assessment (VAS) Score % Change from baseline, Mean",[1]; Day 70,−17.84%
same,"Patient Pain Assessment (VAS) Score Change from baseline, Mean",[1]; Day 70,−12.28
same,"Patient Pain Assessment (VAS) Score Value, Mean",[1]; Day 70,41.04
same,"CRP % Change from baseline, Mean",CRP; Day 14,7.11%
same,"CRP Change from baseline, Mean",CRP; Day 14,−7.40
same,"CRP Value, Mean",CRP; Day 14,11.42
same,"CRP % Change from baseline, Mean",CRP; Day 42,−17.67%
same,"CRP Change from baseline, Mean",CRP; Day 42,−8.61
same,"CRP Value, Mean",CRP; Day 42,10.22
same,"CRP % Change from baseline, Mean",CRP; Day 70,−13.66%
same,"CRP Change from baseline, Mean",CRP; Day 70,−8.95
same,"CRP Value, Mean",CRP; Day 70,9.88
